According to patent US20250221979A1, “NOVEL HETEROCYCLIC COMPOUND” (SHOUYAO HOLDINGS (BEIJING) CO., LTD., priority 2022, published 2025):

Target: human MAT2A enzyme (Homo sapiens (Human), UniProt P31153)
Assay: In vitro enzymatic inhibition activity assay on MAT2A (PiColorLock phosphate detection)
Type: biochemical
Conditions: purified human MAT2A 10 nM, ATP 50 μM, L-methionine 100 μM, 6 h at 23° C.; read-out: MAT2A inhibitory activity IC50
Procedure: Enzymatic activity assays of compounds of this patent against MAT2A (to detect half inhibitory concentration IC50 values of the compounds) were performed using the phosphate detection kit PiColorLockTM (ab270004, purchased from Abcam). This method utilized the principle that purified human MAT2A enzyme catalyzes the formation of S-adenosylmethionine (SAM) from L-methionine and ATP to release free phosphate, and used the spectrophotometric method to quantify phosphate, so as to determine the enzymatic activity of MAT2A. Compounds were diluted in a 10-fold gradient starting at 1 mM with 100% DMSO (for a total of 8 concentrations) and 2 μL of each concentration was added to 48 μL of reaction buffer (50 mM Tris-HCl PH 7.5, 50 mM KCl, 10 mM MgCl2, 0.01% Brij-35, 0.01% BSA, 1 mM DTT) and mixed well. The final diluted compound was prepared, and 5 μL of MAT2A enzyme (final concentration of 10 nM), 5 μL of ATP (final concentration of 50 μM), and 5 μL of L-methionine (final concentration of 100 μM) were added to each well of a 384-well plate (#3701, purchased from CORNING). After the 384-well plate was placed in the incubator at 23° C. for 6 h, 5 μL of PiColorLock reagent diluted Accelerator (dilution ratio 1:100) was added to each well, and the reaction was stopped by incubating in the incubator at 23° C. for 5 min. 2 μL of Stabiliser was added, the absorbance was read at 630 nm on BMG CLARIOstar, and the IC50 value of the compound was calculated by using GraphPad Prism software.
Under the conditions of this experiment, the inhibition of MAT2A by test compounds can be expressed as an IC50 value for the inhibition of the level of phosphate production during the enzymatic reaction.

Sequence of human MAT2A enzyme (P31153 whole entry): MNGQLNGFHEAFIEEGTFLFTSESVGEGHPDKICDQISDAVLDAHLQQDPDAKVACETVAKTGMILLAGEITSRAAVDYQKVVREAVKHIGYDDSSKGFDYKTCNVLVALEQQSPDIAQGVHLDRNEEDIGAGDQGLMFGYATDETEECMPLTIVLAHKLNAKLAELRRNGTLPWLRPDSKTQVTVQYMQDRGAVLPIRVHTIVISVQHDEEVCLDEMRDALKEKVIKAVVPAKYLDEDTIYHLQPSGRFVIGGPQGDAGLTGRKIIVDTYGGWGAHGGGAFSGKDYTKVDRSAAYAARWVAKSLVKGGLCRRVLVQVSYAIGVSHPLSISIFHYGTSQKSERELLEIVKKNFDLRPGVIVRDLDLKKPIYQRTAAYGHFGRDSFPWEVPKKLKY

Structure (SMILES)	IC50 [nM]
COC(=O)c1c(N)c2ccc(C)cc2n(-c2cccc3cnccc23)c1=O [Example 205, methyl 4-amino-1-(isoquinolin-5-yl)-7-methyl-2-oxo-1,2-dihydroquinoline-3-carboxylate]	4.47
COC(=O)c1c(N)c2ccc(OC)cc2n(-c2ccc([C@@H](C)O)cc2)c1=O [Example 365, methyl (R)-4-amino-1-(4-(1-hydroxyethyl)phenyl)-7-methoxy-2-oxo-1,2-dihydroquinoline-3-carboxylate]	2.02
COC(=O)c1c(N)c2ccc(Br)cc2n(Cc2ccccc2)c1=O [Example 30, methyl 4-amino-1-benzyl-7-bromo-2-oxo-1,2-dihydroquinoline-3-carboxylate]	6.1
COC(=O)c1c(N)c2ccc(C(F)(F)F)cc2n(-c2ccc3ocnc3c2)c1=O [Example 128, methyl 4-amino-1-(benzo(2,1-d)(1,3)oxazol-5-yl)-2-oxo-7-(trifluoromethyl)-1,2-dihydroquinoline-3-carboxylate]	3.49
COC(=O)c1c(N)c2ccc(Br)nc2n(-c2ccc(Cl)nc2)c1=O [Example 297, methyl 4-amino-7-bromo-1-(6-chloropyridin-3-yl)-2-oxo-1,2-dihydro-1,8-naphthyridine-3-carboxylate]	2.04
COC(=O)c1c(N)c2ccc(Br)nc2n(-c2ccc(C(C)O)nc2)c1=O (stereo not shown) [Example 332, methyl 4-amino-7-bromo-1-(6-(1-hydroxyethyl)pyridin-3-yl)-2-oxo-1,2-dihydro-1,8-naphthyridine-3-carboxylate]	2.28
COC(=O)c1c(N)c2ccc(C(F)(F)F)cc2n(-c2ccc(Cl)cc2C)c1=O [Example 151, methyl 4-amino-1-(4-chloro-2-methylphenyl)-2-oxo-7-(trifluoromethyl)-1,2-dihydroquinoline-3-carboxylate]	2.86
COC(=O)c1c(N)c2ccc(C(F)(F)F)nc2n(-c2ccc3nccn3c2)c1=O [Example 309, methyl 4-amino-1-(imidazo[3,2-a]pyridin-6-yl)-2-oxo-7-(trifluoromethyl)-1,2-dihydro-1,8-naphthyridine-3-carboxylate]	2.02
COC(=O)c1c(N)c2ccc(C)cc2n(-c2ccc(C(C)O)cc2)c1=O (stereo not shown) [Example 329, methyl 4-amino-1-(4-(1-hydroxyethyl)phenyl)-2-oxo-7-methyl-1,2-dihydroquinoline-3-carboxylate]	2.65
COC(=O)c1c(N)c2ccc(Br)cc2n(-c2ccc(C(C)O)nc2)c1=O (stereo not shown) [Example 291, methyl 4-amino-1-(6-(1-hydroxyethyl)pyridin-3-yl)-2-oxo-7-bromo-1,2-dihydroquinoline-3-carboxylate]	2.18
COC(=O)c1c(N)c2ccc(I)cc2n(-c2ccc(Cl)c3cnccc23)c1=O [Example 227, methyl 4-amino-1-(8-chloroisoquinolin-5-yl)-7-iodo-2-oxo-1,2-dihydroquinoline-3-carboxylate]	1.96
COC(=O)c1c(N)c2ccc(Br)cc2n(-c2ccc(C(C)O)nc2)c1=O (stereo not shown) [Example 352, methyl 4-amino-7-bromo-1-(6-(1-hydroxyethyl)pyridin-3-yl)-2-oxo-1,2-dihydroquinoline-3-carboxylate]	2.58
COC(=O)c1c(N)c2ccc(Br)cc2n(-c2cccc(N)c2)c1=O [Example 284, methyl 4-amino-1-(3-aminophenyl)-7-bromo-2-oxo-1,2-dihydroquinoline-3-carboxylate]	2.44
CCOC(=O)c1c(N)c2ccc(Br)cc2n(-c2ccc3ncoc3c2)c1=O [Example 257, ethyl 4-amino-1-(benzo[d]oxazol-6-yl)-7-bromo-2-oxo-1,2-dihydroquinoline-3-carboxylate]	2.09
COC(=O)c1c(N)c2ccc(OC(F)F)cc2n(-c2ccc(C(C)O)cc2)c1=O (stereo not shown) [Example 335, methyl 4-amino-7-(difluoromethoxy)-1-(4-(1-hydroxyethyl)phenyl)-2-oxo-1,2-dihydroquinoline-3-carboxylate]	2.06
COC(=O)c1c(N)c2ccc(C(F)(F)F)cc2n(-c2ccc(C(C)O)c(F)c2)c1=O (stereo not shown) [Example 158, methyl 4-amino-1-(3-fluoro-4-(1-hydroxyethyl)phenyl)-2-oxo-7-(trifluoromethyl)-1,2-dihydroquinoline-3-carboxylate]	3.83
COC(=O)c1c(N)c2ccc(Br)cc2n(-c2cccc3c(C)nccc23)c1=O [Example 231, methyl 4-amino-1-(1-methylisoquinolin-5-yl)-7-bromo-2-oxo-1,2-dihydroquinoline-3-carboxylate]	2.36
Cc1ccccc1-n1c(=O)c(C(=O)OC2CC2)c(N)c2ccc(I)cc21 [Example 52, cyclopropyl 4-amino-7-iodo-1-(2-methylphenyl)-2-oxo-1,2-dihydroquinolin-3-carboxylate]	2.38
COC(=O)c1c(N)c2ccc(Br)nc2n(-c2cnc(Cl)cc2C)c1=O [Example 249, methyl 4-amino-7-bromo-1-(6-chloro-4-methylpyridin-3-yl)-2-oxo-1,2-dihydro-1,8-naphthyridine-3-carboxylate]	2.99

Now those with a lower IC50, led by results:

IC50 [nM]	Structure (SMILES)
1.89	COC(=O)c1c(N)c2ccc(C3CC3)nc2n(-c2ccc(C)nc2)c1=O [Example 377, methyl 4-amino-7-cyclopropyl-1-(6-methylpyridin-3-yl)-2-oxopyrido[2,3-b]pyridin-3-carboxylate]
1.87	COC(=O)c1c(N)c2ccc(Br)cc2n(-c2ccc3ccncc3c2)c1=O [Example 219, methyl 4-amino-7-bromo-1-(isoquinolin-7-yl)-2-oxo-1,2-dihydroquinoline-3-carboxylate]
1.86	COC(=O)c1c(N)c2ccc(Br)cc2n(-c2ccc(OC)cc2)c1=O [Example 87, methyl 4-amino-7-bromo-1-(4-methoxyphenyl)-2-oxo-1,2-dihydroquinoline-3-carboxylate]
1.76	COC(=O)c1c(N)c2ccc(C(F)(F)F)cc2n(-c2ccc(C)c(N)c2)c1=O [Example 253, methyl 4-amino-1-(3-amino-4-methylphenyl)-2-oxo-7-(trifluoromethyl)-1,2-dihydroquinoline-3-carboxylate]
1.67	COC(=O)c1c(N)c2ccc(C3CC3)cc2n(-c2ccc(OC)cc2)c1=O [Example 73, methyl 4-amino-7-cyclopropyl-1-(4-methoxyphenyl)-2-oxo-1-phenyl-1,2-dihydroquinoline-3-carboxylate]
1.64	COC(=O)c1c(N)c2ccc(Br)cc2n(-c2ccc(Cl)cc2C)c1=O [Example 152, methyl 4-amino-7-bromo-1-(4-chloro-2-methylphenyl)-2-oxo-1,2-dihydroquinoline-3-carboxylate]
1.45	COC(=O)c1c(N)c2ccc(Br)c(F)c2n(-c2ccc(N)cc2)c1=O [Example 338, methyl 4-amino-1-(4-aminophenyl)-7-bromo-8-fluoro-2-oxo-1,2-dihydroquinoline-3-carboxylate]
1.42	COC(=O)c1c(N)c2ccc(Br)nc2n(-c2ccc(N)nc2)c1=O [Example 241, methyl 4-amino-1-(6-aminopyridin-3-yl)-7-bromo-2-oxo-1,2-dihydro-1,8-naphthyridine-3-carboxylate]
1.36	COC(=O)c1c(N)c2ccc(C(C)(F)F)cc2n(-c2ccc([C@@H](C)O)cc2)c1=O [Example 358, methyl 4-amino-7-(1,1-difluoroethyl)-1-(4-((1R)-1-hydroxyethyl)phenyl)-2-oxo-1,2-dihydroquinoline-3-carboxylate]
1.23	COC(=O)c1c(N)c2ccc(I)cc2n(-c2ccccc2)c1=O [Example 16, methyl 4-amino-7-iodo-2-oxo-1-phenyl-1,2-dihydroquinoline-3—carboxylate]
1.05	[2H]C([2H])([2H])OC(=O)c1c(N)c2ccc(Br)cc2n(-c2ccc([C@@H](C)O)cc2)c1=O [Example 351, methyl-d3 (R)-4-amino-7-bromo-1-(4-(1-hydroxyethyl)phenyl)-2-oxo-1,2-dihydroquinolin-3-carboxylate]
0.92	COC(=O)c1c(N)c2ccc(C(F)(F)F)cc2n(-c2ccc(N)cc2)c1=O [Example 273, methyl 4-amino-1-(4-aminophenyl)-2-oxo-7-(trifluoromethyl)-1,2-dihydroquinoline-3-carboxylate]
0.76	COC(=O)c1c(N)c2ccc(C(F)(F)F)cc2n(-c2ccc3ccoc3c2)c1=O [Example 187, methyl 4-amino-1-(1-benzofuran-6-yl)-2-oxo-7-(trifluoromethyl)-1,2-dihydroquinoline-3-carboxylate]
0.7	COC(=O)c1c(N)c2ccc(C(F)(F)F)nc2n(-c2ccc3ccncc3c2)c1=O [Example 283, methyl 4-amino-1-(isoquinolin-7-yl)-2-oxo-7-(trifluoromethyl)-1,2-dihydro-1,8-naphthyridine-3-carboxylate]
0.61	COC(=O)c1c(N)c2ccc(I)cc2n(-c2ccc(OC)cc2)c1=O [Example 79, methyl 4-amino-7-iodo-1-(4-methoxyphenyl)-2-oxo-1,2-dihydroquinoline-3-carboxylate]
